# Data: paper PMC2691833 (Nucleic Acids Research, 2009)
# Biological target: T1, EcoR124I holoenzyme (Escherichia coli, UniProt P10486)
# T1 sequence (P10486 1-1038): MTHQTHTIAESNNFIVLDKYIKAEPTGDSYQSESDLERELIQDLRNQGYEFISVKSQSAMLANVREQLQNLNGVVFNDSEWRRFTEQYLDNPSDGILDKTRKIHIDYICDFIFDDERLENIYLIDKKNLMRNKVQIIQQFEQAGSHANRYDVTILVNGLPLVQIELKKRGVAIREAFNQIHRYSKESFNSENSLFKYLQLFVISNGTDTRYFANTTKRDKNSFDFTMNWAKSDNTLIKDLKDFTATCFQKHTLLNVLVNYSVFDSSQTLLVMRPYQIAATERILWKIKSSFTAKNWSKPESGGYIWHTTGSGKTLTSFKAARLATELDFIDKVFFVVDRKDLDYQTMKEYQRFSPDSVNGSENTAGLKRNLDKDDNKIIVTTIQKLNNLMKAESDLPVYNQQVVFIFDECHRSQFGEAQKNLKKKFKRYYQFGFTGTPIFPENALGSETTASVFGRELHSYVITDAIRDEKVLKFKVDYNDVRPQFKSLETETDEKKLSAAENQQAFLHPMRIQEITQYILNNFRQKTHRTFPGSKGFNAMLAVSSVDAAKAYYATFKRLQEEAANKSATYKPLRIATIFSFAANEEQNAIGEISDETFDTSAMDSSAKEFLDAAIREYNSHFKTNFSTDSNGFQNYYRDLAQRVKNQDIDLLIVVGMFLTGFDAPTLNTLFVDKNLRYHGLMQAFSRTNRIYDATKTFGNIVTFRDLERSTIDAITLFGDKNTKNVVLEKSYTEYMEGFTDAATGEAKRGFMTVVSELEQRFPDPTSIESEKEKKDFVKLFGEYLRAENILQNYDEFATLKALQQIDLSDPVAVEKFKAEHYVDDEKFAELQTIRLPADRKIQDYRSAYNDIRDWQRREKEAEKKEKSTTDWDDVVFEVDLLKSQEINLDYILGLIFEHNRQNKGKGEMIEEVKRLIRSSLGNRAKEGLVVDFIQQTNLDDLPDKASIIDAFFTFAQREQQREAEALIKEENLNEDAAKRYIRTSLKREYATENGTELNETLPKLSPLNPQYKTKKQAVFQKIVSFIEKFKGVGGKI
# T1 sequence (P10484 1-520 partner): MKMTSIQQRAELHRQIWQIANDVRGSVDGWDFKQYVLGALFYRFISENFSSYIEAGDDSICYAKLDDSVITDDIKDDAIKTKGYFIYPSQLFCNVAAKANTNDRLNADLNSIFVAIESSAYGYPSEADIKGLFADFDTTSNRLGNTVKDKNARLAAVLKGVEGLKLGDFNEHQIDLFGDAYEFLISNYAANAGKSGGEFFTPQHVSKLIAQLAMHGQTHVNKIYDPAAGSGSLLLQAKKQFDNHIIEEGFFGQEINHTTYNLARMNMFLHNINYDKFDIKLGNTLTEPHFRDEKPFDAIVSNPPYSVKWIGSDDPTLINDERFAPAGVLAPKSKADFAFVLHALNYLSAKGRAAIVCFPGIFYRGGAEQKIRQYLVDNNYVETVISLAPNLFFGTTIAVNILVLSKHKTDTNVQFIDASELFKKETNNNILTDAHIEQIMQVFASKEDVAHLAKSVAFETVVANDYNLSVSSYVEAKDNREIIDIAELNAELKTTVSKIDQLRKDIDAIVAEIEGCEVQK
# T1 sequence (P10485 1-404 partner): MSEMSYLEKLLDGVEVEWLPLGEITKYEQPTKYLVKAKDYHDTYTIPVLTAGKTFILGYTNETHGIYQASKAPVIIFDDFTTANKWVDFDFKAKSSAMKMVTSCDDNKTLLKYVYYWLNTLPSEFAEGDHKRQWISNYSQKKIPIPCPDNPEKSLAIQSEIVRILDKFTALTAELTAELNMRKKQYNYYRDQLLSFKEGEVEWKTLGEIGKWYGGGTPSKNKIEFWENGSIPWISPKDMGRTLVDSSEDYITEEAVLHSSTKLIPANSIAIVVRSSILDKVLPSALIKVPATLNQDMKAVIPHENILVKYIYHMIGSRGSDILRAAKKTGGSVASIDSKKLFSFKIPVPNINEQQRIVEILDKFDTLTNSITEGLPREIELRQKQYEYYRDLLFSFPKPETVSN
# Conditions: 1 mM ATP, 5 mM Mg(OAc)2, negatively supercoiled R+- or 2R+-DNA, pH 7.5, 25 °C
smiles,measurement,value
Nc1ncnc2c1ncn2[C@@H]1O[C@H](COP(=O)(O)OP(=O)(O)OP(=O)(O)O)[C@@H](O)[C@H]1O [ATP],continuous coupled spectrophotometric ATPase assay,"as total protein concentration increases, the initial rates of ATP hydrolysis increase accordingly"
